Laboratory results from US7462600B2, “Macrolides” (Pfizer Inc, priority 2004, dated 2008).
≈ marks a conversion by molar mass, not a printed value.

Experiments:
Assay type in all cases: cell-based
[1] = test system: Haemophilus influenzae 1218; assay: MIC, microtiter broth dilution (NCCLS M100-S14), H. influenzae 1218 (susceptible); settings: H. influenzae 1218 (susceptible)
Procedure, shortened: (§1)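 Broth dilution was run in microtiter trays and read per NCCLS M100-S14 to give MICs. Compounds came from 40 mg/ml DMSO stock solutions. The strain panel paired macrolide-susceptible parents with macrolide-resistant derivatives.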

[2] = test system: Streptococcus pneumoniae 1095; settings: S. pneumoniae 1095 (ermB); microtiter broth dilution
Procedure, shortened: as §1

[3] = test system: Streptococcus pneumoniae 1175; settings: S. pneumoniae 1175 (mefA); microtiter broth dilution
Procedure, shortened: as §1

[4] = test system: Streptococcus pyogenes 1079; assay: MIC, microtiter broth dilution (NCCLS M100-S14), S. pyogenes 1079 (ermB); settings: S. pyogenes 1079 (ermB)
Procedure, shortened: as §1

[5] = test system: Streptococcus pneumoniae 1016; assay: MIC, microtiter broth dilution (NCCLS M100-S14), S. pneumoniae 1016 (susceptible); settings: S. pneumoniae 1016 (susceptible)
Procedure, shortened: as §1

SMILES	MIC H. influenzae 1218 [1] [µg/mL]	MIC S. pneumo. 1095 [2] [µg/mL]	MIC S. pneumo. 1175 [3] [µg/mL]	MIC S. pyogenes 1079 [4] [µg/mL]	MIC S. pneumo. 1016 [5] [µg/mL]
CCC1OC(=O)C(C)C(=O)C(C)C(OC2OC(C)CC(N(C)C)C2O)C(C)(OC)CC(C)C(=O)C(C)C2N(CC3CCN(C(=O)c4ccc5ncccc5c4)C3)C(=O)OC12C (centres unmarked) [13.12]	4 (≈ 4.7 µM)	>64.00	0.5 (≈ 0.588 µM)	>64.00	<0.06
CCC1OC(=O)C(C)C(=O)C(C)C(OC2OC(C)CC(N(C)C)C2O)C(C)(OC)CC(C)C(=O)C(C)C2N(CC3CCN(C(=O)c4cnc5ccccc5n4)C3)C(=O)OC12C (centres unmarked) [13.13]	16 (≈ 18.8 µM)	>64.00	0.5 (≈ 0.587 µM)	>64.00	<0.06
CCC1OC(=O)C(C)C(=O)C(C)C(OC2OC(C)CC(N(C)C)C2O)C(C)(OC)CC(C)C(=O)C(C)C2N(CC3CCN(C(=O)c4cccc5ncsc45)C3)C(=O)OC12C (centres unmarked) [13.14]	1 (≈ 1.17 µM)	2 (≈ 2.33 µM)	<0.06	>64.00	<0.06
CCC1OC(=O)C(C)C(=O)C(C)C(OC2OC(C)CC(N(C)C)C2O)C(C)(OC)CC(C)C(=O)C(C)C2N(CC3CCN(C(=O)c4cc5cccnc5[nH]4)C3)C(=O)OC12C (centres unmarked) [13.15]	4 (≈ 4.76 µM)	2 (≈ 2.38 µM)	0.12 (≈ 0.143 µM)	>64.00	<0.06
CCC1OC(=O)C(C)C(=O)C(C)C(OC2OC(C)CC(N(C)C)C2O)C(C)(OC)CC(C)C(=O)C(C)C2N(CC3CCN(C(=O)c4cc5ccccn5n4)C3)C(=O)OC12C (centres unmarked) [13.16]	16 (≈ 19 µM)	>64.00	1 (≈ 1.19 µM)	>64.00	<0.06
CCC1OC(=O)C(C)C(=O)C(C)C(OC2OC(C)CC(N(C)C)C2O)C(C)(OC)CC(C)C(=O)C(C)C2N(CC3CCN(C(=O)c4cncc5ccccc45)C3)C(=O)OC12C (centres unmarked) [13.17]	4 (≈ 4.7 µM)	>64.00	0.25 (≈ 0.294 µM)	>64.00	<0.06
CCC1OC(=O)C(C)C(=O)C(C)C(OC2OC(C)CC(N(C)C)C2O)C(C)(OC)CC(C)C(=O)C(C)C2N(CC3CCN(Cc4cccc5nccnc45)CC3)C(=O)OC12C (centres unmarked) [15.01]	32 (≈ 37.6 µM)	>64.00	0.25 (≈ 0.293 µM)	>64.00	<0.06
CCC1OC(=O)C(C)C(=O)C(C)C(OC2OC(C)CC(N(C)C)C2O)C(C)(OC)CC(C)C(=O)C(C)C2N(CC3CCN(Cc4ccnc5ccccc45)CC3)C(=O)OC12C (centres unmarked) [15.02]	32 (≈ 37.6 µM)	>64.00	0.5 (≈ 0.587 µM)	>64.00	<0.06
CCC1OC(=O)C(C)C(=O)C(C)C(OC2OC(C)CC(N(C)C)C2O)C(C)(OC)CC(C)C(=O)C(C)C2N(CC3CCN(Cc4cnc5ccccc5c4)CC3)C(=O)OC12C (centres unmarked) [15.03]	8 (≈ 9.4 µM)	>64.00	0.25 (≈ 0.294 µM)	>64.00	<0.06
CCC1OC(=O)C(C)C(=O)C(C)C(OC2OC(C)CC(N(C)C)C2O)C(C)(OC)CC(C)C(=O)C(C)C2N(CC3CCN(Cc4ccc(OC)nc4)CC3)C(=O)OC12C (centres unmarked) [15.04]	16 (≈ 19.3 µM)	>64.00	0.5 (≈ 0.602 µM)	>64.00	<0.06
CCC1OC(=O)C(C)C(=O)C(C)C(OC2OC(C)CC(N(C)C)C2O)C(C)(OC)CC(C)C(=O)C(C)C2N(CC3CCN(Cc4cccc(OC)n4)CC3)C(=O)OC12C (centres unmarked) [15.05]	8 (≈ 9.63 µM)	>64.00	0.5 (≈ 0.602 µM)	>64.00	<0.06
CCC1OC(=O)C(C)C(=O)C(C)C(OC2OC(C)CC(N(C)C)C2O)C(C)(OC)CC(C)C(=O)C(C)C2N(CC3CCN(Cc4cccnc4OC)CC3)C(=O)OC12C (centres unmarked) [15.06]	32 (≈ 38.5 µM)	>64.00	0.5 (≈ 0.602 µM)	>64.00	<0.06
CCC1OC(=O)C(C)C(=O)C(C)C(OC2OC(C)CC(N(C)C)C2O)C(C)(OC)CC(C)C(=O)C(C)C2N(CC3CCN(Cc4ccc(-c5ccccn5)cc4)CC3)C(=O)OC12C (centres unmarked) [15.07]	32 (≈ 36.5 µM)	>64.00	1 (≈ 1.14 µM)	>64.00	<0.06
CCC1OC(=O)C(C)C(=O)C(C)C(OC2OC(C)CC(N(C)C)C2O)C(C)(OC)CC(C)C(=O)C(C)C2N(CC3CCN(Cc4cnc(-c5ccccc5)[nH]4)CC3)C(=O)OC12C (centres unmarked) [15.08]	2 (≈ 2.31 µM)	>64.00	1 (≈ 1.15 µM)	>64.00	<0.06
CCC1OC(=O)C(C)C(=O)C(C)C(OC2OC(C)CC(N(C)C)C2O)C(C)(OC)CC(C)C(=O)C(C)C2N(CC3CCN(Cc4ccno4)CC3)C(=O)OC12C (centres unmarked) [15.09]	16 (≈ 20.2 µM)	>64.00	0.5 (≈ 0.632 µM)	>64.00	<0.06
CCC1OC(=O)C(C)C(=O)C(C)C(OC2OC(C)CC(N(C)C)C2O)C(C)(OC)CC(C)C(=O)C(C)C2N(CC3CCN(Cc4c[nH]nn4)CC3)C(=O)OC12C (centres unmarked) [15.10]	4 (≈ 5.06 µM)	>64.00	8 (≈ 10.1 µM)	>64.00	<0.06
CCC1OC(=O)C(C)C(=O)C(C)C(OC2OC(C)CC(N(C)C)C2O)C(C)(OC)CC(C)C(=O)C(C)C2N(CC3C4CN(C(=O)OC(C)(C)C)CC43)C(=O)OC12C (centres unmarked) [16.01]	1.56 (≈ 1.93 µM)	50 (≈ 61.9 µM)	25 (≈ 30.9 µM)	>100.00	0.25 (≈ 0.309 µM)
CCC1OC(=O)C(C)C(=O)C(C)C(OC2OC(C)CC(N(C)C)C2O)C(C)(OC)CC(C)C(=O)C(C)C2N(CC3C4CN(C(=O)c5cccnc5)CC43)C(=O)OC12C (centres unmarked) [16.02]	0.78 (≈ 0.959 µM)	3.12 (≈ 3.84 µM)	0.78 (≈ 0.959 µM)	>100.00	0.02 (≈ 0.0246 µM)
CCC1OC(=O)C(C)C(=O)C(C)C(OC2OC(C)CC(N(C)C)C2O)C(C)(OC)CC(C)C(=O)C(C)C2N(CC3C4CN(C(=O)c5cc(F)ccc5F)CC43)C(=O)OC12C (centres unmarked) [16.03]	0.5 (≈ 0.59 µM)	1.56 (≈ 1.84 µM)	0.5 (≈ 0.59 µM)	50 (≈ 59 µM)	0.01 (≈ 0.0118 µM)
